This note sets out measurements from publication PMC12126525, “Mechanism of ATP hydrolysis in the Hsp70 BiP nucleotide-binding domain” (Nature Communications, 2025).

Read-outs that look alike come from different tables or passages of the source.

The target of assay [1] is T1, BiP NBD (Homo sapiens, UniProt P11021). As to the method: We next wanted to compare our determined kinetic rates of ADP dissociation, koff2 and koff5 , with a standard assay in the Hsp70 field that measures ADP lifetimes by ADP displacement.
The dissociation rate constants (koff) were determined by fitting the data to a one phase exponential function using a python script. […]
The red line corresponds to the mono-exponential fit of the data. […]
from 0.001 to 10 mM, in the absence of Pi (pink circles) and with 0.5 mM Pi (blue circles). Data points represent the mean for three independent experiments and the error bar represents the standard deviation. The half maximal inhibitory concentration (IC50) of Ca was calculated from three

Assay [2] has as its target T1, BiP NBD. Description: Global kinetic fit (MCMC) of four NMR data sets (E1+E2, E1 only, E2 only, no recycling): functional cycle kinetic parameters. It counts as biochemical. More on the design: His6 (N, cleaved yes); made in house; host or cells: E. coli BL21-(DE3)-Lemo, pET28a vector. An excerpt:
It comprises 5 different states that are connected by […] reaction equations of first and second order. We consider ATP hydrolysis an irreversible reaction without backreaction. The other pathways are reversible dissociation/association reactions, arbitrarily labeled 1–5. The microscopic equations (elementary reactions) for these 11 reactions are given by:1 NBD^ATPkcat→NBD^ADP⋅Pi 2 NBD^ATPkoff1⇌kon1NBD^apo+ATP 3 NBD^ADPkoff2⇌kon2NBD^apo+ADP 4 NBD^Pikoff3⇌kon3NBD^apo+Pi 5 NBD^ADP⋅Pikoff4⇌kon4NBD^ADP+Pi 6 NBD^ADP⋅Pikoff5⇌kon5NBD^Pi+ADP With the forward and backward kinetic rate constants connected by thermodynamic equilibrium dissociation constants given by7 koffi/koni=KDifori=1,…,5 For each of the 5 states, a differential equation describing the conservation of mass can be derived:8 d/dtNBD^apo=+koff1NBD^ATP+koff2NBD^ADP+koff3NBD^Pi−kon1NBD^apoATP−kon2NBD^apoADP−kon3NBD^apoPi 9 d/dt[NBD^ATP]=+kon1NBD^apoATP−koff1NBD^ATP−kcatNBD^ATP 10 d/dtNBD^ADP⋅Pi=+kcatNBD^ATP+kon4NBD^ADPPi+kon5NBD^PiADP−koff4NBD^ADP⋅Pi−koff5NBD^ADP⋅Pi 11 d/dtNBD^ADP=+koff4NBD^ADP⋅Pi+kon2NBD^apoADP−koff2NBD^ADP−kon4NBD^ADPPi 12 d/dtNBD^Pi=+koff5NBD^ADP⋅Pi+kon3NBD^apoPi−koff3NBD^Pi−kon5NBD^PiADP Furthermore, we have the total amount13 NBD^apo+NBD^ATP+NBD^ADP+NBD^ADP⋅Pi+NBD^Pi=NBD0 These equations can be used for numerical fitting of steady-state and non-steady-state experimental data.
The experimental data of the BiP NBD in-cyclo experiments were fitted using standard reaction kinetics. Free variables were the kon and koff rates for the five reversible reaction and the catalytic rate constant (kcat) for the irreversible ATP hydrolysis step (See theory section). The initial values for kcat , koff2 , koff4 and koff5 were set to the value determined experimentally with in-cyclo experiment. The initial value for koff3 was taken from the EXSY experiment and the initial range for koff1 and KD1 were taken from the literature. […] The prior distributions were defined based on the average state occupancy resolved from the in-cyclo experiment: tNBD·ADP, tNBD, tNBD·ADP·Pi and tNBD·Pi. Numerical integration of the corresponding differential equations for the reaction scheme (described in Fig. 2a) was performed using a custom Python module (Kinetic).
To fully determine all kinetic parameters, the data fitting procedure was conducted as a global fit of four independent experimental datasets: (i) the in-cyclo experiment with ATP regeneration and phosphate removal, (ii) ATP regeneration only, (iii) single batch experiments starting from pure ATP with the phosphate removal system, and (iv) single batch experiments starting from pure ATP.
Fitting of the functional cycle kinetic parameters. a-d, Global fit of the experimental data presented in the manuscript E1 +E2 (a), E1 (b), E2 (c), no recycling system (d). Data points are shown as circles NBD·ADP (blue), NBD·ADP·PI (dark blue) and NBD·ATP (red) (left) and pyruvate (grey), glucose-1-P (lavender), ATP (red) and ADP (blue) (right). The fit of the data is shown as lines in the same color as the data points. Data points and standard deviation for three independent experiments. e, Numerical stability of the global fitting of the experimental data.

Setting [3] is: Supplementary Fig 10a, time 5 min.
The mark [4] stands for this setting: Supplementary Fig 10a, time 11 min.
Setting [5] is: Supplementary Fig 10a, time 17 min.
Where [6] appears, read: Supplementary Fig 10a, time 23 min.
[7] abbreviates: Supplementary Fig 10a, time 29 min.
Setting [8] is: Supplementary Fig 10a, time 35 min.
Setting [9] is: Supplementary Fig 10a, time 41 min.
Where [10] appears, read: Supplementary Fig 10a, time 47 min.
Where [11] appears, read: Supplementary Fig 10a, time 53 min.
[12] abbreviates: Supplementary Fig 10a, time 59 min.
The mark [13] stands for this setting: Supplementary Fig 10a, time 65 min.
Setting [14] is: Supplementary Fig 10a, time 71 min.
Where [15] appears, read: Supplementary Fig 10b, time 10 min.
[16] abbreviates: Supplementary Fig 10b, time 16 min.
Setting [17] is: Supplementary Fig 10b, time 22 min.
[18] abbreviates: Supplementary Fig 10b, time 28 min.
[19] abbreviates: Supplementary Fig 10b, time 34 min.
Setting [20] is: Supplementary Fig 10b, time 40 min.
Where [21] appears, read: Supplementary Fig 10b, time 46 min.
[22] abbreviates: Supplementary Fig 10b, time 52 min.
Where [23] appears, read: Supplementary Fig 10b, time 58 min.
Setting [24] is: Supplementary Fig 10b, time 64 min.
Where [25] appears, read: Supplementary Fig 10b, time 70 min.

T1 sequence (P11021 19-406): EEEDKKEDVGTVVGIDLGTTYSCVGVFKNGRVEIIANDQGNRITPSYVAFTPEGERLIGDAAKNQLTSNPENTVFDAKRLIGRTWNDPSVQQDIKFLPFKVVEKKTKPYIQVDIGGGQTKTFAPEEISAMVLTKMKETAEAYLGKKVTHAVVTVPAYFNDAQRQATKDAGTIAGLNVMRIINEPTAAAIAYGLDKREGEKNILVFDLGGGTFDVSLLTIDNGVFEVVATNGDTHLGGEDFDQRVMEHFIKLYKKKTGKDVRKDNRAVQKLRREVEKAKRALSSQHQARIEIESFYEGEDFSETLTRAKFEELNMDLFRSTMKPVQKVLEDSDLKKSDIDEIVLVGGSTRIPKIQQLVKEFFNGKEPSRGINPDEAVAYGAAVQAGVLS

Take `[Ca+2]` [Ca2+]: the “Supplementary Fig 16a time trace signal” value on BiP NBD [1] ([Ca2+] 0.1 μM, time 148.582 sec) is reported as 0.000; on BiP NBD [1] ([Ca2+] 0.5 μM, time 148.582 sec), 0.000; at BiP NBD [1] ([Ca2+] 1 μM, time 148.582 sec) it was 0.000; at BiP NBD [1] ([Ca2+] 5 μM, time 148.582 sec), 0.000; at BiP NBD [1] ([Ca2+] 10 μM, time 148.582 sec) it was 0.000; at BiP NBD [1] ([Ca2+] 25 μM, time 148.582 sec), 0.000. Besides, the “Supplementary Fig 16a time trace signal” value was found to be 0.000 at BiP NBD [1] ([Ca2+] 50 μM, time 148.582 sec); 0.002 on BiP NBD [1] ([Ca2+] 75 μM, time 148.582 sec); 0.000 on BiP NBD [1] ([Ca2+] 100 μM, time 148.582 sec); 0.000 on BiP NBD [1] ([Ca2+] 125 μM, time 148.582 sec); 0.005 on BiP NBD [1] ([Ca2+] 150 μM, time 148.582 sec); 0.003 on BiP NBD [1] ([Ca2+] 175 μM, time 148.582 sec). Besides, the “Supplementary Fig 16a time trace signal” value on BiP NBD [1] ([Ca2+] 200 μM, time 148.582 sec) was 0.000; at BiP NBD [1] ([Ca2+] 300 μM, time 148.582 sec), 0.003; on BiP NBD [1] ([Ca2+] 400 μM, time 148.582 sec), 0.002; on BiP NBD [1] ([Ca2+] 500 μM, time 148.582 sec) it was 0.002; at BiP NBD [1] ([Ca2+] 1000 μM, time 148.582 sec), 0.000; on BiP NBD [1] ([Ca2+] 5000 μM, time 148.582 sec), 0.001. For the same compound, the “Supplementary Fig 16a time trace signal” value at BiP NBD [1] ([Pi] 0.5 mM, [Ca2+] 0.1 μM, time 148.846 sec) is reported as 0.000; at BiP NBD [1] ([Pi] 0.5 mM, [Ca2+] 0.5 μM, time 148.846 sec) it was 0.004; on BiP NBD [1] ([Pi] 0.5 mM, [Ca2+] 1 μM, time 148.846 sec), 0.005; at BiP NBD [1] ([Pi] 0.5 mM, [Ca2+] 5 μM, time 148.846 sec), 0.000; at BiP NBD [1] ([Pi] 0.5 mM, [Ca2+] 10 μM, time 148.846 sec) it was 0.000; at BiP NBD [1] ([Pi] 0.5 mM, [Ca2+] 50 μM, time 148.846 sec), 0.004. Also, the “Supplementary Fig 16a time trace signal” value on BiP NBD [1] ([Pi] 0.5 mM, [Ca2+] 100 μM, time 148.846 sec) is 0.003; at BiP NBD [1] ([Pi] 0.5 mM, [Ca2+] 500 μM, time 148.846 sec), 0.007; at BiP NBD [1] ([Pi] 0.5 mM, [Ca2+] 1000 μM, time 148.846 sec), 0.010; on BiP NBD [1] ([Pi] 0.5 mM, [Ca2+] 5000 μM, time 148.846 sec) it was 0.000.

With `C=C(OP(=O)(O)O)C(=O)O` [PEP], the species is 23927 µM at BiP NBD [2] (setting [3]); 22915 µM on BiP NBD [2] (setting [4]); 22075 µM on BiP NBD [2] (setting [5]); 20991 µM at BiP NBD [2] (setting [6]); 20195 µM on BiP NBD [2] (setting [7]); 19469 µM on BiP NBD [2] (setting [8]). In addition, the species amounted to 18568 µM at BiP NBD [2] (setting [9]); 17755 µM on BiP NBD [2] (setting [10]); 16928 µM at BiP NBD [2] (setting [11]); 16013 µM on BiP NBD [2] (setting [12]); 15275 µM at BiP NBD [2] (setting [13]); 14277 µM at BiP NBD [2] (setting [14]). Besides, the species on BiP NBD [2] (setting [15]) was 9179 µM; on BiP NBD [2] (setting [16]), 8398 µM; on BiP NBD [2] (setting [17]) it was 7745 µM; on BiP NBD [2] (setting [18]) it was 7180 µM; at BiP NBD [2] (setting [19]) it was 6616 µM; on BiP NBD [2] (setting [20]), 6265 µM. In addition, the species turned out to be 5793 µM at BiP NBD [2] (setting [21]); 5256 µM at BiP NBD [2] (setting [22]); 4838 µM on BiP NBD [2] (setting [23]); 4465 µM at BiP NBD [2] (setting [24]); 3973 µM on BiP NBD [2] (setting [25]).

For `CC(=O)C(=O)O` [Pyruvate], the species on BiP NBD [2] (setting [3]) worked out at 841 µM; at BiP NBD [2] (setting [4]), 1872 µM; on BiP NBD [2] (setting [5]), 3013 µM; on BiP NBD [2] (setting [6]), 4002 µM; at BiP NBD [2] (setting [7]), 4950 µM; at BiP NBD [2] (setting [8]), 5935 µM. The species on BiP NBD [2] (setting [9]) was 6850 µM; at BiP NBD [2] (setting [10]), 7775 µM; at BiP NBD [2] (setting [11]), 8621 µM; on BiP NBD [2] (setting [12]) it was 9455 µM; on BiP NBD [2] (setting [13]), 10281 µM; at BiP NBD [2] (setting [14]) it was 11083 µM. For the same compound, the species was determined as 1011 µM on BiP NBD [2] (setting [15]); 1602 µM on BiP NBD [2] (setting [16]); 2255 µM at BiP NBD [2] (setting [17]); 2820 µM at BiP NBD [2] (setting [18]); 3384 µM on BiP NBD [2] (setting [19]); 3735 µM at BiP NBD [2] (setting [20]). Also, the species is 4207 µM on BiP NBD [2] (setting [21]); 4544 µM on BiP NBD [2] (setting [22]); 4962 µM on BiP NBD [2] (setting [23]); 5335 µM at BiP NBD [2] (setting [24]); 5727 µM at BiP NBD [2] (setting [25]).

As for `O=P(O)(O)O[C@H]1O[C@H](CO)[C@@H](O)[C@H](O)[C@H]1O` [glucose-1-p], the species on BiP NBD [2] (setting [3]) worked out at 1073 µM; at BiP NBD [2] (setting [4]), 2085 µM; at BiP NBD [2] (setting [5]), 2925 µM; at BiP NBD [2] (setting [6]), 4009 µM; on BiP NBD [2] (setting [7]), 4805 µM; on BiP NBD [2] (setting [8]) it was 5531 µM. Besides, the species at BiP NBD [2] (setting [9]) was found to be 6432 µM; on BiP NBD [2] (setting [10]) it was 7245 µM; on BiP NBD [2] (setting [11]) it was 8072 µM; at BiP NBD [2] (setting [12]), 8987 µM; on BiP NBD [2] (setting [13]), 9725 µM; at BiP NBD [2] (setting [14]) it was 10723 µM. In addition, the species at BiP NBD [2] (Supplementary Fig 10c, time 5 min) amounted to 690 µM; at BiP NBD [2] (Supplementary Fig 10c, time 11 min) it was 1328 µM; on BiP NBD [2] (Supplementary Fig 10c, time 17 min), 1777 µM; at BiP NBD [2] (Supplementary Fig 10c, time 23 min), 2409 µM; on BiP NBD [2] (Supplementary Fig 10c, time 29 min), 2838 µM; on BiP NBD [2] (Supplementary Fig 10c, time 35 min), 3243 µM. Further, the species was determined as 3518 µM on BiP NBD [2] (Supplementary Fig 10c, time 41 min); 3730 µM on BiP NBD [2] (Supplementary Fig 10c, time 47 min); 3950 µM on BiP NBD [2] (Supplementary Fig 10c, time 53 min).
